In US10745814B2, “Enzymatic nucleic acid synthesis” (President and Fellows of Harvard College, priority 2016, dated 2020):

Target: TdT (Bos taurus, UniProt P06526)
Test: Screen of nucleotides and nucleotide analogues as substrates for TdT-based DNA synthesis
Format: biochemical
Settings: for efficiency as substrates of TdT compared to natural counterparts: analogues more positively charged than natural counterparts; for behavior with respect to TdT-based DNA synthesis (extension efficiency, rate, and extension length distribution): natural nucleotides compared with each other
Excerpt: Nucleotide analogues may be used as substrates for enzymatic synthesis using TdT. In the general scheme of the presently disclosed methods, the distribution of extension length by TdT is important to ensure efficient and reliable encoding of information into DNA.
These analogues include, but are not limited to, 5-Aminoallyl-dUTP and 5-Propargylamino-dUTP.

Sequence of TdT (P06526 whole entry): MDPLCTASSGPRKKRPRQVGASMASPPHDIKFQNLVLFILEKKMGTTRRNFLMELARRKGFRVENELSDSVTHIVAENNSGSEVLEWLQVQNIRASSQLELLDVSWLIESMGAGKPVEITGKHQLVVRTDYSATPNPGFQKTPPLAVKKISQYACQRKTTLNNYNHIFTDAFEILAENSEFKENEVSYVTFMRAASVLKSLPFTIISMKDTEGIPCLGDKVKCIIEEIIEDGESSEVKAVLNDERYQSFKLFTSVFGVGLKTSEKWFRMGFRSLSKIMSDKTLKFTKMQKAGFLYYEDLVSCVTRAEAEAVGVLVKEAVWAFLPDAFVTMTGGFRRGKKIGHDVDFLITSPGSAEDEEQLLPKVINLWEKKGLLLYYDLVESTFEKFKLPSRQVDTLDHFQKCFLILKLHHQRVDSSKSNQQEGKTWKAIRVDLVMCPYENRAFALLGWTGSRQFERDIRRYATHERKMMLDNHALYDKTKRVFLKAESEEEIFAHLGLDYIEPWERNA

| Structure (SMILES) | efficiency as substrates of TdT compared to natural counterparts | behavior with respect to TdT-based DNA synthesis (extension efficiency, rate, and extension length distribution) |
| --- | --- | --- |
| NC/C=C/c1cn(C2CC(O)C(COP(=O)(O)OP(=O)(O)OP(=O)(O)O)O2)c(=O)[nH]c1=O (centres unmarked) [5-Aminoallyl-dUTP] | far more efficient substrates of TdT |  |
| NCC#Cc1cn(C2CC(O)C(COP(=O)(O)OP(=O)(O)OP(=O)(O)O)O2)c(=O)[nH]c1=O (centres unmarked) [5-Propargylamino-dUTP] | far more efficient substrates of TdT |  |
| Nc1ncnc2c1ncn2[C@H]1C[C@H](O)[C@@H](COP(=O)(O)OP(=O)(O)OP(=O)(O)O)O1 [dATP] |  | poorest behavior |
| Nc1ccn([C@H]2C[C@H](O)[C@@H](COP(=O)(O)OP(=O)(O)OP(=O)(O)O)O2)c(=O)n1 [dCTP] |  | most optimal behavior |
| Nc1nc2c(ncn2[C@H]2C[C@H](O)[C@@H](COP(=O)(O)OP(=O)(O)OP(=O)(O)O)O2)c(=O)[nH]1 [dGTP] |  | poorest behavior |
